These results are taken from a melting point compilation (Tetko et al.; mined from patent text by program, amines drawn as free bases though some values may be those of a salt).

As a reminder, the melting point is the temperature of the solid-liquid transition. The compound `CCOC(=O)CCCOc1cccc2cc(C(C)=O)oc12` yielded a melting point of 47.1 to 48.4 °C. The figure for `COc1ccc(/C=C/C(=O)C2C(=O)CC(c3ccc(OC)cc3)C([N+](=O)[O-])C2C=Cc2ccccc2)cc1` (stereo not given) is 88 to 90 °C; for `OCC(I)c1ccccc1` (stereo not given) it is 71 to 72 °C.

Consider `C[C@]1(COc2ccc(N3CCC(Cc4ccc(Cl)cc4)CC3)cc2)Cn2cc([N+](=O)[O-])nc2O1`, for which the melting point is 207 to 211 °C. `O=C1[C@H]2CCC[C@H]2N(C(=O)CBr)c2ccccc2N1CCCc1ccccc1` (relative stereo) came in with a melting point of 130 to 132 °C.

The compound `O=C(O)C1=CSCCO1` registered a melting point of 144 °C. The figure for `CC(=O)NC[C@@H]1C[C@H]1c1cccc2nn(C)cc12` (relative stereo) is 145 to 147 °C; for `COC(=O)c1ccc(-c2c[nH]c(-c3ccc4c(c3)C(C)(C)CCC4(C)C)c2)cc1` it is 174 to 175 °C; for `NC(=O)c1sc2ncnc(-c3cccc(NC(=O)Nc4cccc(C(F)(F)F)c4)c3)c2c1N` it is 201 to 203 °C.

`Nc1nc(-c2ccc(CNC(=O)c3cccnc3)s2)cs1` displayed a melting point of 240 to 241 °C. For `CC(=O)OCC(C)(C)c1cc(OS(C)(=O)=O)ccc1OC(C)=O` the value was 49 to 51 °C; for `Cc1ccc(Nc2ncc(C=Cc3cccnc3)c3ccccc23)cc1Br`, 91 °C; for `O=C(NC(=O)c1c(Cl)cccc1Cl)Nc1cc(-c2ccc(-c3ccccc3)cc2)on1`, 225 to 227 °C.

In turn, `O=S(=O)(c1ccc(Cl)cc1)N(Cc1ccc(OC2CCOCC2)nc1)C1CCOCC1` yielded a melting point of 123 to 125 °C. `FC(F)(F)CSc1nc(-c2ccc(Cl)cc2)c(-c2ccc(Cl)cc2)[nH]1` returned a melting point of 212 to 213 °C. For `CC1(C)CCC(C)(C)c2cc(C(=O)CNc3ccc(C(=O)O)cc3)ccc21` the value was 168 to 169 °C; for `c1ccc(C2=c3cc4c(cc3Oc3ccccc32)=C(c2ccccc2)c2ccccc2O4)cc1`, 419 °C. The figure for `CCCN=C(N)Nc1ccnc(CCCCc2ncc(C)c(O)n2)n1` is 213 to 215 °C; for `CCOc1ccc(C=C(CSC(C)=O)C(=O)NCCC(=O)OCc2ccccc2)cc1` it is 92 °C; for `CCOC(=NC(=O)c1ccc(OC)cc1)N1Cc2ccccc2-c2ccccc2C1` it is 71 to 78 °C. On to `CN(c1cccc2cc(-c3ncc(CCC(N)=O)s3)[nH]c12)S(=O)(=O)c1cccs1`, for which the melting point fell in the range of 246 to 247 °C.

As to `Nc1c2c(nc3ccccc13)CCC2`, the melting point lay in the range of 180 to 182 °C. On to `CCOc1ccc(N2CCN(Cc3c[nH]c4ncccc34)CC2)cc1`, for which the melting point lay within 179 to 180 °C. Compound `CC(=O)CC(=O)NC(=O)C(C)C` gave a melting point of 148 to 160 °C.

In the case of `CNC(=O)c1cc(C)c(C(c2cc(F)ccc2F)S(=O)(=O)c2ccc(Cl)cc2)cn1` (stereo not given), the melting point was 200 to 201 °C.

With `C=CCc1c(O)c(Cl)c(Cl)c2c1CC(C)(c1ccccc1)C2=O` (stereo not given), the melting point amounted to 125 °C.

In turn, `COC(CNC(=O)CCN1C(=O)N(C)C(=O)C1(C)C)OC` had a melting point of 86.4 °C. For `CSc1ccc(-c2nn(Cc3ccccc3)c(=S)cc2-c2ccc(Cl)cc2)cc1` the value was 103 °C; for `CCCCN(CCCC)c1nc(-c2ccc(OC)cc2)nc2sc(C#N)c(C)c12`, 96 to 98 °C. Compound `CCNc1nc(OCc2ccccc2)nc2c1ncn2C1OC(CO)C(O)C1O` (stereo not given) registered a melting point of 170 to 171 °C. For `COc1cc2nc(C)nc(Cl)c2cc1OC` the value was 182 to 184 °C; for `CCCc1c(OCC(O)CSc2ccc(CC(=O)OC)c(Cl)c2Cl)ccc(C(C)=O)c1O` (stereo not given), 85 to 88 °C. For `Nc1ccc2nc3c(nc2c1)CCCC3`, the melting point lay in the range of 150 to 152 °C. For `C=CCCCCCCCCNC(=O)N(C)O` the value was 58 to 59 °C. The figure for `CC1(C)CCCc2ccc(CC#Cc3ccc(C(=O)O)c(O)c3)cc21` is 185 to 187 °C.
